Measurements reported in US7538111B2, “Benzenesulphonamide derivatives, method for production and use thereof for treatment of pain” (Laboratoires Fournier S.A., priority 2003, dated 2009).
Where a name gives a salt, the structure may show the parent alone.

Tested on: not given
Assay: not given
Settings: not given

SMILES	melting point [°C]
CCN(CC)CCC1CCN(C(=O)COCCN(C)S(=O)(=O)c2c(C)cc(OC)cc2C)CC1.O=C(O)/C=C/C(=O)O	60
COc1cc(C)c(S(=O)(=O)N(C)CCOCC(=O)N2CCC(CN3CCC3)CC2)c(C)c1.O=C(O)/C=C/C(=O)O	75
COc1cc(C)c(S(=O)(=O)N(C)CCOCC(=O)N2CCC(CCCN3CCC3)CC2)c(C)c1.O=C(O)/C=C/C(=O)O	65
COc1cc(C)c(S(=O)(=O)N(C)CCOCC(=O)N2CCC(CCCN(C)C)CC2)c(C)c1.O=C(O)/C=C/C(=O)O	55
COc1cc(C)c(S(=O)(=O)N(C)CCOCC(=O)N2CCN(CCCN3CCC3)CC2)c(C)c1.O=C(O)/C=C/C(=O)O.O=C(O)/C=C/C(=O)O	82
CCN(CCOCC(=O)N1CCN(CCCN(C)C)CC1)S(=O)(=O)c1c(C)cc(OC)cc1C.O=C(O)/C=C/C(=O)O.O=C(O)/C=C/C(=O)O	60
COc1cc(Cl)c(S(=O)(=O)N(C)CCOCC(=O)N2CCN(CCCN(C)C)CC2)c(Cl)c1.O=C(O)/C=C/C(=O)O.O=C(O)/C=C/C(=O)O	60
COc1cc(C)c(S(=O)(=O)N(C)CCOCC(=O)N2CCC(C(C)(C)CN3CCC3)CC2)c(C)c1.O=C(O)/C=C/C(=O)O	60 to 62
COc1cc(Cl)c(S(=O)(=O)N(C)CCOCC(=O)N2CCC(CCN(C)C)CC2)c(Cl)c1.O=C(O)/C=C/C(=O)O	70
COc1cc(C)c(S(=O)(=O)N(CCOCC(=O)N2CCN(CCN3CCCC3)CC2)C2CC2)c(C)c1 (as salt: fumarate) [Example 19, N-[2-[2-[4-[2-(1-pyrrolidinyl)ethyl]-1-piperazinyl]-2-oxo-ethoxy]ethyl]-4-methoxy-N-cyclopropyl-2,6-dimethylbenzenesulphonamide, difumarate]	141
CCN(CCOCC(=O)N1CCN(C2CCN(C)CC2)CC1)S(=O)(=O)c1c(C)cc(OC)cc1C (as salt: fumarate) [Example 21, N-[2-[2-[4-(1-methyl-4-piperidinyl)-1-piperazinyl]-2-oxo-ethoxy]ethyl]-4-methoxy-N-ethyl-2,6-dimethylbenzenesulphonamide, difumarate]	206
CCN1C2CCC1CC(N1CCN(C(=O)COCCN(C)S(=O)(=O)c3c(C)cc(OC)cc3C)CC1)C2 (stereo not drawn) (as salt: fumarate) [Example 46, N-[2-[2-[4-(8-ethyl-8-azabicyclo[3.2.1]oct-3-yl)-1-piperazinyl]-2-oxo-ethoxy]ethyl]-4-methoxy-N,2,6-trimethylbenzenesulphonamide, difumarate]	132

Now from value to molecule:

melting point [°C]	SMILES
230	COc1cc(C)c(S(=O)(=O)N(C)CCOCC(=O)N2CCN(C3CCN(C(C)(C)C)CC3)CC2)c(C)c1 (as salt: fumarate) [Example 32, N-[2-[2-[4-[1-(1,1-dimethylethyl)-4-piperidinyl]-1-piperazinyl]-2-oxo-ethoxy]ethyl]-4-methoxy-N,2,6-trimethylbenzenesulphonamide, difumarate]
204	COc1cc(C)c(S(=O)(=O)N(C)CCOCC(=O)N2CCN(CCCN3CCN(C)CC3)CC2)c(C)c1 (as salt: fumarate) [Example 45, N-[2-[2-[4-[3-(4-methyl-1-piperazinyl)propyl]-1-piperazinyl]-2-oxo-ethoxy]ethyl]-4-methoxy-N,2,6-trimethylbenzenesulphonamide, difumarate]
55	COc1cc(C)c(S(=O)(=O)N(C)CCOCC(=O)N2CCC(CCN3CCCC3)CC2)c(C)c1 (as salt: fumarate) [Example 76, 4-methoxy-N,2,6-trimethyl-N-[2-[2-[4-[2-(1-pyrrolidinyl)ethyl]-1-piperidinyl]-2-oxoethoxy]ethyl]benzenesulphonamide, fumarate]
50	COc1cc(C)c(S(=O)(=O)N(CCOCC(=O)N2CCC(CCN3CCCC3)CC2)C2CC2)c(C)c1 (as salt: fumarate) [Example 79, N-cyclopropyl-4-methoxy-2,6-dimethyl-N-[2-[2-[4-[2-(1-pyrrolidinyl)ethyl]-1-piperidinyl]-2-oxoethoxy]ethyl]benzenesulphonamide, fumarate]

Target: T1, B1 receptor of bradykinin (Homo sapiens, UniProt P46663)
T1 construct: To induce expression of the B1 receptor of bradykinin, the vein segments are allowed to incubate at 37° C; from tissue; host or cells: human umbilical vein rings, endothelium removed, incubated 16 h in EMEM to induce the receptor
T1 sequence (P46663 1-353): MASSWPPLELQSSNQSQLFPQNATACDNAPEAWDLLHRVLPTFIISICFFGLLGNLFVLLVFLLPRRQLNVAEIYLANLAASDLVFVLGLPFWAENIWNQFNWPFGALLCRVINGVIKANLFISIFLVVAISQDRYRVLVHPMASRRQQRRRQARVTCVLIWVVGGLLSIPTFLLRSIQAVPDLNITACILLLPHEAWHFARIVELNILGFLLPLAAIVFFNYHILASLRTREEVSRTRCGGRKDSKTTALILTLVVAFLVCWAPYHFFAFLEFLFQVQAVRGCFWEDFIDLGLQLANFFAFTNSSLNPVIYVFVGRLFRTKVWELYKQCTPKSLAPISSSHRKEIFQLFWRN
Assay: human umbilical vein contraction by des-Arg10-Kallidin, antagonism at the B1 receptor of bradykinin
Assay type: cell-based
Settings: isolated human umbilical vein rings, agonist des-Arg10-Kallidin, pKB=-log KB from EC50 concentration ratio
Protocol: This test uses the human umbilical vein and is conducted as per the following protocol:
The cord is dissected in Krebs solution to release the umbilical vein. The vein is cleansed of all adhering tissue and cut into small rings 3-4 mm in width. The endothelium is carefully removed by inserting a fine n° 1 catheter, made slightly abrasive, into the vessel lumen.
After a series of rinsings, rests and load readjustments, the maximum contraction of each segment is determined by further depolarisation with the KPSS solution.
After a new rest period during which the 1 g load is constantly readjusted, the following compounds are added to the isolated organ bath: Mepyramine (1 μM), Atropine (1 μM), Indometacine (3 μM), LNA (30 μM), Captopril (10 μM), DL-Thiorphan (1 μM) and Nifedipine (0.1 μM).
After 20 minutes, the molecule to be tested or the molecule solvent is added to the isolated organ bath. The molecules are examined at 10 μM; should a molecule show a sufficient level of activity, it is examined at lower concentrations (eg: 1-0.1-0.01 μM).
After 15 minutes incubation, the vein segments are contracted through the addition of increasing concentrations of des-Arg10-Kallidin (0.1 nM to 30 000 nM) in the chamber.
The pKB=[−log KB] is obtained from the equation: KB—[A]/(concentration ratio−1) in which [A] is the concentration of antagonist and the (concentration ratio) represents the ratio between EC50 in the presence of an antagonist and EC50 in the absence of antagonist.

SMILES	Kb [nM]
COc1cc(C)c(S(=O)(=O)N(CCOCC(=O)N2CCN(CCN3CCCC3)CC2)C2CC2)c(C)c1 [Example 19, N-[2-[2-[4-[2-(1-pyrrolidinyl)ethyl]-1-piperazinyl]-2-oxo-ethoxy]ethyl]-4-methoxy-N-cyclopropyl-2,6-dimethylbenzenesulphonamide, difumarate]	31.6
CCN1C2CCC1CC(N1CCN(C(=O)COCCN(C)S(=O)(=O)c3c(C)cc(OC)cc3C)CC1)C2 (stereo not drawn) [Example 46, N-[2-[2-[4-(8-ethyl-8-azabicyclo[3.2.1]oct-3-yl)-1-piperazinyl]-2-oxo-ethoxy]ethyl]-4-methoxy-N,2,6-trimethylbenzenesulphonamide, difumarate]	2.51

Other lines, results leading:

Kb [nM]	SMILES
15.8	CCN(CCOCC(=O)N1CCN(C2CCN(C)CC2)CC1)S(=O)(=O)c1c(C)cc(OC)cc1C [Example 21, N-[2-[2-[4-(1-methyl-4-piperidinyl)-1-piperazinyl]-2-oxo-ethoxy]ethyl]-4-methoxy-N-ethyl-2,6-dimethylbenzenesulphonamide, difumarate]
0.631	COc1cc(C)c(S(=O)(=O)N(C)CCOCC(=O)N2CCN(C3CCN(C(C)(C)C)CC3)CC2)c(C)c1 [Example 32, N-[2-[2-[4-[1-(1,1-dimethylethyl)-4-piperidinyl]-1-piperazinyl]-2-oxo-ethoxy]ethyl]-4-methoxy-N,2,6-trimethylbenzenesulphonamide, difumarate]
12.6	COc1cc(C)c(S(=O)(=O)N(C)CCOCC(=O)N2CCN(CCCN3CCN(C)CC3)CC2)c(C)c1 [Example 45, N-[2-[2-[4-[3-(4-methyl-1-piperazinyl)propyl]-1-piperazinyl]-2-oxo-ethoxy]ethyl]-4-methoxy-N,2,6-trimethylbenzenesulphonamide, difumarate]
10	COc1cc(C)c(S(=O)(=O)N(C)CCOCC(=O)N2CCC(CCN3CCCC3)CC2)c(C)c1 [Example 76, 4-methoxy-N,2,6-trimethyl-N-[2-[2-[4-[2-(1-pyrrolidinyl)ethyl]-1-piperidinyl]-2-oxoethoxy]ethyl]benzenesulphonamide, fumarate]
7.94	COc1cc(C)c(S(=O)(=O)N(CCOCC(=O)N2CCC(CCN3CCCC3)CC2)C2CC2)c(C)c1 [Example 79, N-cyclopropyl-4-methoxy-2,6-dimethyl-N-[2-[2-[4-[2-(1-pyrrolidinyl)ethyl]-1-piperidinyl]-2-oxoethoxy]ethyl]benzenesulphonamide, fumarate]
0.631	CCN1CCC(C2CCN(C(=O)COCCN(C)S(=O)(=O)c3c(C)cc(OC)cc3C)CC2)CC1 [Example 84, 4-methoxy-N,2,6-trimethyl-N-[2-[2-[4-(1-ethyl-4-piperidinyl)-1-piperidinyl]-2-oxoethoxy]ethyl]benzenesulphonamide, fumarate]
7.94	COc1cc(C)c(S(=O)(=O)N(C)CCOCC(=O)N2CCC(N3CCCN(C)CC3)CC2)c(C)c1 [Example 89, N-[2-[2-[4-(hexahydro-4-methyl-1H-1,4-diazepin-1-yl)-1-piperidinyl]-2-oxoethoxy]ethyl]-4-methoxy-N,2,6-trimethylbenzenesulphonamide, fumarate]

Tested on: formalin-induced pain response (paw licking)
Assay: formalin-induced pain response test in mice
Assay type: in vivo
Settings: oral route, dose 1 mg/kg, 2nd phase 15 to 30 min after formalin injection
Protocol: The compounds of the present invention were evaluated for their analgesic property using the formalin-induced pain response test in mice (Shibata, M., Ohkubo, T., Takahashi, H. & R. Inoki. Modified formalin test: characteristic biphasic pain response. Pain, 38, 347-352). To summarize, formalin (0.92% in physiological saline) is injected into the hind paw and the period of paw licking, which represents pain intensity, is recorded from 0 to 5 min (1st phase) and from 15 to 30 min (2nd phase) after the injection.

SMILES	percentage inhibition of the second paw licking phase induced by formalin [%]
COc1cc(C)c(S(=O)(=O)N(C)CCOCC(=O)N2CCN([C@@H]3CN4CCC3CC4)CC2)c(C)c1 [Example 6, N-[2-[2-[4-[(3S)-1-azabicyclo[2.2.2]oct-3-yl]-1-piperazinyl]-2-oxo-ethoxy]ethyl]-4-methoxy-N,2,6-trimethylbenzenesulphonamide, fumarate]	40

Same assay, conditions: oral route, dose 3 mg/kg, 2nd phase 15 to 30 min after formalin injection

SMILES	percentage inhibition of the second paw licking phase induced by formalin [%]
COc1cc(C)c(S(=O)(=O)N(C)CCOCC(=O)N2CCN(C3CN4CCC3CC4)CC2)c(C)c1 (racemic) [Example 4, N-[2-[2-[4-[(3RS)-1-azabicyclo[2.2.2]oct-3-yl]-1-piperazinyl]-2-oxo-ethoxy]ethyl]-4-methoxy-N,2,6-trimethylbenzenesulphonamide, difumarate]	43
